Assay results taken from patent US6103728A, “Quinazolines” (Sugen, Inc., priority 1997, dated 2000).

Columns and labels:
Format in all cases: cell-based
[1] = biological target: T1, HER2 (Homo sapiens, UniProt P04626); experiment: HER2-ELISA, whole cell HER2 activity in BT474 cells; details: BT474 human breast tumor cells; serum-free; 2 h drug preincubation
T1 construct: a human breast tumor cell line which expresses high levels of HER2 kinase; endogenous in cells; host or cells: BT-474 human breast tumor cells
Source text: (§1) The following examples illustrates the ability of the exemplary compounds to inhibit receptor tyrosine kinases, such as HER2 and/or EGFR. The following target cells were used for cellular kinase assays: NIH3T3 clone C7 (Honegger et al., supra) engineered to over-express human EGF receptor; NIH3T3 cells engineered to over-express a chimeric receptor containing the EGFR extracellular domain and the HER2 intracellular kinase domain; the human mammary carcinoma line BT474 (ATCC ATB2) expressing HER2; and the human glioblastoma line U1242 that expresses PDGFR-beta. Growth assays were carried out using human mammary epithelial SKBR3 (ATCC HTB30) cells (SKBR3 cells over-express HER2), SKOV3 (ATCC HTB77) human ovarian cancer cell line (SKOV3 cells also over-express HER2), A431 cells (A431 cells over-express EGFR) MCF7 human breast carcinoma cells, MCF7 cells overexpressing the HER2 kinase (MCF7-HER2), NIH3T3 cells, and NIH3T3 cells overexpressing the HER2 kinase (3T3-HER2.
HER2-BT474 assays measuring whole cell HER2 activity was carried out as described below:
1) The cell line used in this assay is BT-474 (ATCC HBT20), a human breast tumor cell line which expresses high levels of HER2 kinase.
2) BT-474 is grown in an incubator with 5% CO2 at 37° C. The growth media is RPMI+10% FBS+GMS-G (Gibco supplement)+Glutamine.
3) A monoclonal anti-HER2 antibody is used in ELISA. […]

[2] = biological target: T2, PDGFR-beta (Homo sapiens, UniProt P09619); experiment: PDGF-R Cellular Assay (ELISA); details: human glioblastoma line U1242; PDGF-BB 100 ng/ml
T2 construct: the human glioblastoma line U1242 that expresses PDGFR-beta; endogenous in cells; host or cells: U1242 (U1242 MG) human glioblastoma cells
Source text: as §1, with “(3T3-HER2. […]” for “(3T3-HER2.”

[3] = test system: chimeric receptor containing the EGFR extracellular domain and the HER2 intracellular kinase domain; experiment: EGFR-HER2 chimeric receptor whole cell kinase assay in NIH3T3 cells (ELISA); details: NIH3T3 cells with EGFR/HER2 chimeric receptor; 100 nM EGF; 2 h drug incubation; read-out: ELISA DATA HER2 - (3T3)
Source text: as §1
EGFR-HER2 Chimeric Recetor
HER2 kinase activity (EGFR-3T3) in whole cells was measured as described below:
The materials and reagents are identical to these used in example 1, the EGFR whole cell kinase assay.
A. Coat ELISA plates (Corning, 96 well, Cat. #25805-96) with 05-101 antibody at 0.5 µg per well in PBS, 100 μl final volume/well, and store overnight at 4° C. […]

[4] = biological target: T3, IGF-1 Receptor (Homo sapiens, UniProt P08069); experiment: Cellular IGF-1 Receptor ELISA (3T3/IGF-1R cells); details: 20 nM IGF-1, serum-free, 2 h drug incubation
T3 construct: expressed in transfected cells; host or cells: 3T3 cells (3T3/IGF-1R)

[5] = biological target: T4, EGFR (Homo sapiens, UniProt P00533); experiment: EGFR Whole Cell Kinase Assay (EGFR-3T3 assay, ELISA); details: NIH3T3 clone C7 over-expressing human EGF receptor; 25 nM EGF
T4 construct: expressed in transfected cells; host or cells: NIH3T3 clone C7 (EGFR/C7)
Source text: as §1
EGFR Whole Cell Kinase Assay
EGFR kinase activity (EGFR-3T3 assay) in whole cells was measured as described below:
A. Coat ELISA plates (Corning, 96 well, Cat. #25805-96) with 05-101 antibody at 0.5 μg per well in PBS, 150 μl final volume/well, and store overnight at 4° C. Coated plates are good for up to 10 days when stored at 4° C. […]

T3 sequence (P08069 31-1367): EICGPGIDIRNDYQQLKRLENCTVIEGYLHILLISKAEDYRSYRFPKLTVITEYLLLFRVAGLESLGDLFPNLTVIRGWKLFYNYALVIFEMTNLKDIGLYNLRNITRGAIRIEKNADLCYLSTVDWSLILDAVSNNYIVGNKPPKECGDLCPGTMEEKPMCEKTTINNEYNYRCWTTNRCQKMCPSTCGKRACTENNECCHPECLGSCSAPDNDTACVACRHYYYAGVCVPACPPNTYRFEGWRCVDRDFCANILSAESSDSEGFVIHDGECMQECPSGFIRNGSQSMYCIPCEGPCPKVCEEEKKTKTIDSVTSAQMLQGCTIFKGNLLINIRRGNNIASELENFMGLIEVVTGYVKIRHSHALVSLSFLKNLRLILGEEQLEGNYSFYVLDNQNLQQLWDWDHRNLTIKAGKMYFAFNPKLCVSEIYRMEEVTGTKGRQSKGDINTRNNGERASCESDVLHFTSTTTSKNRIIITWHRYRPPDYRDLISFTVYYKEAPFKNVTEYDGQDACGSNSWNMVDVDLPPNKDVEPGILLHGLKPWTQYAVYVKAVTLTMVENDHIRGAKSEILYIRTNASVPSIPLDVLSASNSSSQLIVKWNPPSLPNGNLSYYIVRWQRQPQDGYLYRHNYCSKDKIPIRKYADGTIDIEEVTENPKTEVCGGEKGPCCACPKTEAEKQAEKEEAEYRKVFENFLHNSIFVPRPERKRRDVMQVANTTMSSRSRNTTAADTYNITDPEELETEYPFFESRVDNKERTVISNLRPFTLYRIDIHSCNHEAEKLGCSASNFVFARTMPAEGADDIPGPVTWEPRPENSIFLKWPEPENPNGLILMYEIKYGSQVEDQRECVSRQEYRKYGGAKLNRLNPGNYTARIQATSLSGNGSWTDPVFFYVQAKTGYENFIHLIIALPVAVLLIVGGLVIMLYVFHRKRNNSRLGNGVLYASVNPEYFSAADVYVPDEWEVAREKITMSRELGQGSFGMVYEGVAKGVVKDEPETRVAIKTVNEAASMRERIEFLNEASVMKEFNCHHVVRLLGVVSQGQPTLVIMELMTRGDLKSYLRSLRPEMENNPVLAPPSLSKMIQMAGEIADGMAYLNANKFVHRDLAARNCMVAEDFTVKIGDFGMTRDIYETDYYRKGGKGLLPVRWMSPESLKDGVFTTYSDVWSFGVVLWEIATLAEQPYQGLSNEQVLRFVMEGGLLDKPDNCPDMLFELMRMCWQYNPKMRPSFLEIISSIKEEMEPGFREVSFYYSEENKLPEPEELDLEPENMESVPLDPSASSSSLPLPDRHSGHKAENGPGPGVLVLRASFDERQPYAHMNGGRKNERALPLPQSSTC
T2 sequence (P09619 33-1106): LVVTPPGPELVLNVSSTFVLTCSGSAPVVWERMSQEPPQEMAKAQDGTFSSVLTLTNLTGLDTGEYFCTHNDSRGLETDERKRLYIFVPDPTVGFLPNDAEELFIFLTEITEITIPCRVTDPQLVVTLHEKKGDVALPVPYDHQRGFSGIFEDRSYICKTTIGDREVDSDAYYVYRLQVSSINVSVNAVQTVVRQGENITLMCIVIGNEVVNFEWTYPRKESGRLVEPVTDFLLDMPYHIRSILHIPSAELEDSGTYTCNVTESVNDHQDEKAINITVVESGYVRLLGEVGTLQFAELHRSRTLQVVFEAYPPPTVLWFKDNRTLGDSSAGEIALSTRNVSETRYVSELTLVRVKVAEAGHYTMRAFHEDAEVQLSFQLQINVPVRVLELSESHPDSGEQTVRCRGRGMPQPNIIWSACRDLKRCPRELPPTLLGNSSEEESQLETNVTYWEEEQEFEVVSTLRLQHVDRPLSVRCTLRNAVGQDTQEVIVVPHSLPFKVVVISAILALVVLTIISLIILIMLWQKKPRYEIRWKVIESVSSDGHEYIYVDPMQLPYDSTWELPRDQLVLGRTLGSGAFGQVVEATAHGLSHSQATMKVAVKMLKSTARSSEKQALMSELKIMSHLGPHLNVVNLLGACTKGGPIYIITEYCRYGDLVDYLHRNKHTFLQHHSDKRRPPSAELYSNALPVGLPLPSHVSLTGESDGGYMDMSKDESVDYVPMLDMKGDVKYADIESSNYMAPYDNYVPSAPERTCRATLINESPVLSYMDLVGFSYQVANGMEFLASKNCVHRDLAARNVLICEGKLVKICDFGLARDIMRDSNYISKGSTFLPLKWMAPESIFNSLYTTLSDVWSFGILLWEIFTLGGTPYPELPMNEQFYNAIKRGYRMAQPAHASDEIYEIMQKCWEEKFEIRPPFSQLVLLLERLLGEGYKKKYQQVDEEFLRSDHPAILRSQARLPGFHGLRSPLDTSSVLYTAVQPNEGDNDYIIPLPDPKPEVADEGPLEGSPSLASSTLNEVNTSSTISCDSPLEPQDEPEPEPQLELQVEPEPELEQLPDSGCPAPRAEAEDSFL
T4 sequence (P00533 25-1210): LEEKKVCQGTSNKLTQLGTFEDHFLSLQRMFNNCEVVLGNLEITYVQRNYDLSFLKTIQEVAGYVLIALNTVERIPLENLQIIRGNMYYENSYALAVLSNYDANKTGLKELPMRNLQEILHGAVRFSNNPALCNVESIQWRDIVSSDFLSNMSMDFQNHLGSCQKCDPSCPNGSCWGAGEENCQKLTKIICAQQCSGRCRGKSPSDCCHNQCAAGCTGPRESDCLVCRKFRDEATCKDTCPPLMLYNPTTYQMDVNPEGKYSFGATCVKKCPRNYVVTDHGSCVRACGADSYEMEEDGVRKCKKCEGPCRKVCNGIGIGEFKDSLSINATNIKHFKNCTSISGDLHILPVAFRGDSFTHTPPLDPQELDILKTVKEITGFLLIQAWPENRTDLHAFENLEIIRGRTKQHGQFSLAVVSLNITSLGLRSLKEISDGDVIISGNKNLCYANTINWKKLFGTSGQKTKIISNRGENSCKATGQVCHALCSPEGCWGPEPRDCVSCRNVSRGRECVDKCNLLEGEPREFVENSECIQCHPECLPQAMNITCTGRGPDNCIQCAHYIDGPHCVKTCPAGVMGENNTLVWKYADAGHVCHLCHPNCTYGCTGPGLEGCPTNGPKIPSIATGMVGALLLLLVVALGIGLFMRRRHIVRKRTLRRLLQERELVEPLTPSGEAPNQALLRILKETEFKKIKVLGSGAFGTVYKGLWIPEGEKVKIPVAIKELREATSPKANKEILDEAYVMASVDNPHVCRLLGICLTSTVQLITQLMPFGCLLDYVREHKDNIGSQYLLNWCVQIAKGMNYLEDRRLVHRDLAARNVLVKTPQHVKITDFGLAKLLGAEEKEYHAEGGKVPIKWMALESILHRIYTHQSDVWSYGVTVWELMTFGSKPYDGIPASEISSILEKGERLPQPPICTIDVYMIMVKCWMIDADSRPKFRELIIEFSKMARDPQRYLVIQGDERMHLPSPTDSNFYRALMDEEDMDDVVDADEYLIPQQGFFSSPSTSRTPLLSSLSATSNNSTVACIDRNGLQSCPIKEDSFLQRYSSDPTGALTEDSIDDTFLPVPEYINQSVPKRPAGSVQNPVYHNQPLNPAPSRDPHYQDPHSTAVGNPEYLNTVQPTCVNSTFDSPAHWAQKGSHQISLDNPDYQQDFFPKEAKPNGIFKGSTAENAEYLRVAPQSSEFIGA
T1 sequence (P04626 23-1255): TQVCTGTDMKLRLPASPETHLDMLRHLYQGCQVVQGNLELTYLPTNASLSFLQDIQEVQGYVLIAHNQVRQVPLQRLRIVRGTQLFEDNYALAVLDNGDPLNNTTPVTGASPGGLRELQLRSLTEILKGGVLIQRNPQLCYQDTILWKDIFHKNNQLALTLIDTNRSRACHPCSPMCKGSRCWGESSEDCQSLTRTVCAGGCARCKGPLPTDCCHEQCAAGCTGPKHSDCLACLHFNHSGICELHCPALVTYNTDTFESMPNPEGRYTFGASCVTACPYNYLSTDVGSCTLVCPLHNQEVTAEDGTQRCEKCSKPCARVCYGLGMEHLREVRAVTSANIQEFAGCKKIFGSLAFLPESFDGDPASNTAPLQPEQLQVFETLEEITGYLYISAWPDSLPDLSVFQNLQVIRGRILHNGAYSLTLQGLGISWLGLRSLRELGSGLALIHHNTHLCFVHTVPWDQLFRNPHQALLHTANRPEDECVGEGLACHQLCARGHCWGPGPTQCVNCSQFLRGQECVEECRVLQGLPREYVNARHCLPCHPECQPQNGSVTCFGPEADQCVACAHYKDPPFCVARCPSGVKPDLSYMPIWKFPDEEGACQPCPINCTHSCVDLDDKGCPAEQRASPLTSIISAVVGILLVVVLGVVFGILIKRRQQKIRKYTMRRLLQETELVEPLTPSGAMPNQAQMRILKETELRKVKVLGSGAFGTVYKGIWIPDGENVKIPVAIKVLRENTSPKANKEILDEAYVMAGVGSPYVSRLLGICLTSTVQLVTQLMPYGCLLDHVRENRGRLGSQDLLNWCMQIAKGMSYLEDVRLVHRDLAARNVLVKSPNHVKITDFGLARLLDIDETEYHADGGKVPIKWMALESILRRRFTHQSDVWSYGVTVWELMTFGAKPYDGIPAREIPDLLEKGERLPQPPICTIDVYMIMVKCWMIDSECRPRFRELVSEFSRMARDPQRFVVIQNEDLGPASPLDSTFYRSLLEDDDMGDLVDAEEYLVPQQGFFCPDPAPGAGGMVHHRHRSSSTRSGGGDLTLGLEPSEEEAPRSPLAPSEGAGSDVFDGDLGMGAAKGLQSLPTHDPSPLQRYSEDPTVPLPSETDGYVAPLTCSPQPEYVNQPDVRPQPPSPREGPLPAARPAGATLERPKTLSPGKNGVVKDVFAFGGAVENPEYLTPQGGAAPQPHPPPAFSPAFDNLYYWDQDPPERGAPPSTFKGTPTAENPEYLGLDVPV

COC(=O)C(c1cccc(Br)c1)c1ncnc2cc(OC)c(OC)cc12 (centres unmarked) [Compound D002] was tested, and the IC50 [1] was greater than 100 µM, the IC50 [2] was greater than 100 µM and the IC50 [3] was greater than 50 µM. It also gave an IC50 [4] greater than 50 µM and an IC50 [5] greater than 100 µM.
